Assay results published in the RepoRT retention time repository.

Test: Waters ACQUITY UPLC HSS T3, 0.4 mL/min; A: water + 0.1% formic acid; B: acetonitrile + 0.1% formic acid; gradient (min/%B) 0/5 1.5/5 12/95 14/95 14.01/100 17/100
Settings: stereoisomer not certain

LC retention time [min] | Compound
6.31 | C=C1CCC2C(OC(=O)C2(O)CO)C2C(C)C(=O)CC12 (stereo unspecified)
1.02 | CC(C)C(N)C(=O)O (stereo unspecified)
4.89 | CCCCCC(=O)CCOC1OC(CO)C(O)C(O)C1O (stereo unspecified)
3.99 | CC1(OC2OC(CO)C(O)C(O)C2O)CC(O)C2(C(C)(C)O)CC12 (stereo unspecified)
11 | C=C(C)C1CCC2(C(=O)O)CCC3(C)C(CCC4C5(C)CC(O)C(OC(=O)C=Cc6ccc(O)cc6)C(C)(C)C5CCC43C)C12 (stereo unspecified)
0.755 | COc1cc(CCCO)ccc1OC(CO)COC1OCC(O)C(O)C1O (stereo unspecified)
5.08 | CC1CCC(C(C)(O)COC2OC(CO)C(O)C(O)C2O)CC1O (stereo unspecified)
1.02 | CCCC(N)C(=O)O (stereo unspecified)
8.51 | CCCCCC(O)C=CC1OC(O)CC(O)C1CC=CCC(=O)O (stereo unspecified)
0.786 | CC(=O)NC(CO)C(=O)O (stereo unspecified)
10.9 | CC1(COC(=O)c2ccccc2)CCC2(C)CCC3(C)C4=CCC5C(C)(CCC(OC(=O)c6ccc(N)cc6)C5(C)C)C4=CCC3(C)C2C1 (stereo unspecified)
11 | CC1(C)CCC2(C(=O)O)CCC3(C)C(=CCC4C5(C)CC(O)C(OC(=O)C=Cc6ccc(O)cc6)C(C)(C)C5CCC43C)C2C1 (stereo unspecified)
0.766 | CCCCC(CC)CS (stereo unspecified)
3 | CCCC(=O)OC(CC(=O)[O-])C[N+](C)(C)C (stereo unspecified)
0.828 | NCC1CCC(C(=O)O)CC1 (stereo unspecified)
0.818 | C=C(CCC)C(N)C(=O)O (stereo unspecified)
3.99 | CC(C)=CC1c2[nH]c3ccccc3c2CC2C(=O)N3CCCC3C(=O)N21 (stereo unspecified)
0.755 | CC(C=CCC1C(=O)CCC1CC(=O)O)OC1OC(CO)C(O)C(O)C1O (stereo unspecified)
9.03 | CC(=CC(=O)OC1OC(CO)C(O)C(O)C1O)CCC=C(C)CCC(O)C(C)(C)O (stereo unspecified)
0.786 | CC(=O)OCC(N)C(=O)O (stereo unspecified)
0.777 | NCCS(=O)(=O)O
1.05 | CC1OC(CC(=O)O)Cc2c1c(O)c1c(O)c(-c3cc(=O)c4c(=O)c5c(c(=O)c=4c3=O)C(C)OC(CC(=O)O)C5)cc(O)c1c2O (stereo unspecified)
10.5 | CCCCCCCCCCCCCCCCCCOC(=O)C(O)(CC(=O)O)CC(=O)O
5.64 | CCCCCCCCCCCCCCCCCC(=O)OCC(O)COP(=O)(O)OCC(O)CO (stereo unspecified)
4.99 | CC(C)C1=CC2(O)CCC3C(C)(C(=O)O)CCCC3(C)C2CC1=O (stereo unspecified)

LC retention time [min] | Compound
5.43 | CCCCC=CCCCCCCCC(=O)OCC(COP(=O)(O)OCC(N)C(=O)O)OC(=O)CCCCCCCCCCC (stereo unspecified)
6.31 | CC1C(=O)OC2C3=C(C(=O)CC3(C)O)C(C)(O)CCC12 (stereo unspecified)
5.43 | CCCCCCCCCCCCCCCC(=O)OCC(COP(=O)([O-])OCC[N+](C)(C)C)OC(=O)CCCC(O)C=CC=O (stereo unspecified)
10.6 | Cc1cc(O)cc(O)c1C(=O)OC1CC2(C)C3CC(C)(C)CC3C=C(C=O)C12 (stereo unspecified)
4.65 | CCC=CCC=CCC=CCC=CCC=CCC=CCCC(=O)OCC(O)COP(=O)(O)OCCN (stereo unspecified)
0.934 | Nc1ncnc2c1ncn2C1OC(COP(=O)(O)O)C(O)C1O (stereo unspecified)
3.91 | CCCCCC(=O)OCCC(CCC)SC (stereo unspecified)
1.3 | CCCCCC(C)S (stereo unspecified)
3.75 | CSCCC(N)C(=O)NC(CCCN=C(N)N)C(=O)O (stereo unspecified)
9.02 | CCCCCC=CCC(O)CC=CC=CC(SCC(N)C(=O)O)C(O)CCCC(=O)O (stereo unspecified)
0.706 | C[N+](C)(C)CCO
11 | CC1=CC(c2c(O)c(C(=O)CCc3ccccc3)c(O)c(C3C=C(C)CCC3C(C)C)c2O)C(C(C)C)CC1 (stereo unspecified)
5.17 | COC(=O)C1(OC(C)=O)CC23CCC4C(C)(O)CCCC4(C)C2CCC1C3 (stereo unspecified)
1.02 | Nc1ccnc(=O)[nH]1
11.8 | CC(=O)C1CCC2C3CC=C4CC(O)CCC4(C)C3CCC12C (stereo unspecified)
4.43 | CC(CCC(=O)NCCS(=O)(=O)O)C1CCC2C3C(O)C(O)C4CC(O)CCC4(C)C3CCC12C (stereo unspecified)
4.37 | COc1cc2c(c(OC)c1CC=C(C)C)CC(c1ccc(O)c3c1OC(C)(C)C=C3)CO2 (stereo unspecified)
1.02 | CNC(C)(C)C(=O)O
3.99 | OCCOCCOCCOCCOCCOCCOCCO
8.61 | C=C(C)C1CCC(C)(O)C1CC1=C(O)C(=C(O)c2ccccc2)C(=O)C(CC=C(C)C)(CC=C(C)C)C1=O (stereo unspecified)
1.1 | O=c1[nH]cnc2[nH]ncc12
4.44 | CC1=CC(=O)CC(C)(C)C1(O)CCC(C)OC1OC(COC2OCC(O)(CO)C2O)C(O)C(O)C1O (stereo unspecified)
5.01 | CCC=CCC(O)C(O)C=CC=CC=CC=CC(O)CC=CCCC(=O)O (stereo unspecified)
1.02 | CC(C)SC(C)C
13.9 | CCCCCC=CCC=CCCCCCCCC(=O)OC(COC(=O)CCCCCCCC=CCCCCCC)COP(=O)(O)OCC(O)CO (stereo unspecified)

LC retention time [min] | Compound
9.86 | CC1CCC2C(C)C3C(CC4C5CC=C6CC(OC7OC(CO)C(O)C(OC8OC(CO)C(O)C(O)C8O)C7O)CCC6(C)C5CCC43C)N2C1 (stereo unspecified)
4.98 | Cc1c(C)c(C(=O)C(C)O)n2c1CCC2 (stereo unspecified)
3.99 | CC1(C)C2C(O)CC(C)(C2O)C1OC1OC(CO)C(O)C(O)C1O (stereo unspecified)
5.08 | CC1CCC(C(C)(O)CO)CC1OC1OC(CO)C(O)C(O)C1O (stereo unspecified)
1.1 | O=c1[nH]cnc2nc[nH]c12
0.786 | NC(CCC(=O)O)C(=O)O (stereo unspecified)
4.81 | C=CC(C)(CCC=C(C)CCC=C(C)CCC(OC1OC(CO)C(O)C(O)C1O)C(C)(C)O)OC1OC(CO)C(O)C(O)C1O (stereo unspecified)
4.91 | CCCCCCC=CCCCCCCCC(=O)OC(CO)COP(=O)(O)OCCN (stereo unspecified)
1.11 | Cc1cc(O)c2c(c1O)C(=O)C1=C(C2=O)C(=O)C2C(O)C1C1C(O)CC(=O)C3=C(O)c4c(O)cc(C)c(O)c4C(=O)C321 (stereo unspecified)
1.03 | Nc1nc2c(ncn2CCC(CO)CO)c(=O)[nH]1
0.706 | CCCCN(CCCN(CCCN(CCCN)CCCN)CCCN(CCCN)CCCN)CCCN(CCCN(CCCN)CCCN)CCCN(CCCN)CCCN
1.02 | CC(CP(CCCCCCS(=O)(=O)[O-])CCCCCCS(=O)(=O)[O-])P(CCCCCCS(=O)(=O)[O-])CCCCCCS(=O)(=O)[O-] (stereo unspecified)
0.786 | CNC(CC(=O)O)C(=O)O (stereo unspecified)
11 | CCC(C(=O)CC(C)C1=C(O)C(=O)C2C3CCC4CC(OC5OC(C(=O)O)C(O)C(O)C5O)CCC4(C)C3CCC12C)C(C)C (stereo unspecified)
1.06 | CC(=O)c1cnccn1
5.17 | CCCCCCCCCCCCCCCCCCC(=O)OCC(O)COP(=O)(O)OCC(N)C(=O)O (stereo unspecified)
9.56 | CCCCCCC=CCCCCCCCCCC(=O)OC(CCC(=O)[O-])[N+](C)(C)C (stereo unspecified)
4.65 | CCC=CCC=CCC=CCC=CCC=CCC=CCCC(=O)OC(CO)COP(=O)(O)OCCN (stereo unspecified)
10.5 | CCCCCCCCCCCCCCCCCCOC(=O)CC(O)(CC(=O)O)C(=O)O (stereo unspecified)
0.934 | Nc1ncnc2c1ncn2C1OC(CO)C(OP(=O)(O)O)C1O (stereo unspecified)
1.05 | Oc1cc(O)c2c(c1)OC(c1cc(O)c(O)c(O)c1)C(O)C2 (stereo unspecified)
1.06 | NC(=O)c1cccnc1
13.9 | CCCCCC=CCC=CCCCCCCCC(=O)OCC(COP(=O)(O)OCC(O)CO)OC(=O)CCCCCCCC=CCCCCCC (stereo unspecified)
1.05 | CC(C)CC(N)C(=O)NC(CCC(=O)O)C(=O)O (stereo unspecified)

Compound | LC retention time [min]
CCCCCON=O | 1.02
CC(O)C1CCC2C3CCC4=CC(=O)CCC4(C)C3CCC12C (stereo unspecified) | 11.8
